Measured values as given in ChEMBL document CHEMBL1158133, “Cytotoxic flavaglines and bisamides from Aglaia edulis” (J Nat Prod, 2006).
Converted amounts (≈) assume the structure as drawn.

Test system: LNCaP
Assay: Cytotoxicity against human LNCAP cells
Assay type: functional
Settings: read-out: ED50 (the source's name)

| Compound | EC50 [µg/mL] |
| --- | --- |
| COc1ccc([C@@]23Oc4cc5c(c(OC)c4[C@]2(O)[C@H](OC(C)=O)[C@H](C(=O)N(C)C)[C@H]3c2ccccc2)OCO5)cc1 | 0.01 (≈ 0.0178 µM) |
| COc1ccc([C@@]23Oc4cc5c(c(OC)c4[C@]2(O)[C@H](OC(C)=O)[C@H](C(=O)N(C)C)[C@H]3c2ccccc2)OCO5)cc1OC | 0.3 (≈ 0.507 µM) |
| COc1ccc([C@]23Oc4cc5c(c(OC)c4[C@](O)([C@H](C(=O)N4CCCC4NC(=O)CC(C)C)[C@H]2c2ccccc2)[C@@H]3OC(C)=O)OCO5)cc1 (stereo not given in full) | > 5 |
| COc1ccc(-c2oc3cc(OC)c(OC)c(O)c3c(=O)c2OC)cc1 | > 5 |
| COc1ccc([C@]23Oc4cc5c(c(OC)c4[C@](O)([C@H](C(=O)N4CCCC4NC(=O)C=C(C)C)[C@H]2c2ccccc2)[C@@H]3O)OCO5)cc1 (stereo not given in full) [19,20-DEHYDROEDULIRIN A] | > 5 |
| COC(=O)[C@@]1(c2ccc(OC)cc2)Oc2cc3c(c(OC)c2C(=O)[C@H](C(=O)N2CCC[C@@H]2NC(=O)C=C(C)C)[C@H]1c1ccccc1)OCO3 [19,20-DEHYDROEDULISONE A] | > 5 |
| COc1ccc(C2C(=O)Oc3cc4c(c(OC)c32)OCO4)cc1 (stereo not given) [AGLALACTONE] | > 5 |
| CS/C=C/C(=O)NC1CCCN1C(=O)/C=C/c1ccccc1 (stereo not given) [AGLAMIDE A] | > 5 |
| C[S+]([O-])/C=C/C(=O)NC1CCCN1C(=O)/C=C/c1ccccc1 (stereo not given) [AGLAMIDE B] | > 5 |
| CC(C)CC(=O)NC1CCCN1C(=O)/C=C/c1ccccc1 (stereo not given) [AGLAMIDE C] | > 5 |
| COC1CCCN1C(=O)/C=C/c1ccccc1 (stereo not given) [AGLAMIDE D] | > 5 |
| COc1ccc([C@@]23Oc4cc5c(c(OC)c4[C@]2(O)[C@H](O)[C@H](C(=O)N(C)C)[C@H]3c2ccccc2)OCO5)cc1 [AGLAROXIN A] | 0.02 (≈ 0.0385 µM) |
| COc1ccc([C@]23Oc4cc5c(c(OC)c4[C@](O)([C@H](C(=O)N4CCCC4NC(=O)CC(C)C)[C@H]2c2ccccc2)[C@@H]3O)OCO5)cc1 (stereo not given in full) [EDULIRIN A] | > 5 |
| COc1ccc([C@]23Oc4cc5c(c(OC)c4[C@](O)([C@H](c4ccccc4)[C@H]2C(=O)N2CCCC2NC(=O)CC(C)C)[C@@H]3O)OCO5)cc1 (stereo not given in full) [EDULIRIN B] | > 5 |
| COc1ccc([C@]23Oc4cc5c(c(OC)c4[C@](O)([C@@H](c4ccccc4)[C@@H]2C(=O)N2CCCC2NC(=O)CC(C)C)[C@@H]3O)OCO5)cc1 (stereo not given in full) [ISOEDULIRIN A] | > 5 |
| COc1cc2ccc(=O)oc2cc1O [SCOPOLETIN] | > 5 |

Test system: P388
Assay: In vivo antitumor activity against mouse P388 cellsleukemia model at 4.5 mg/kg, ip
Assay type: functional
Settings: route intraperitoneal

| Compound | T/C [%] |
| --- | --- |
| COc1ccc([C@@]23Oc4cc5c(c(OC)c4[C@]2(O)[C@H](OC(C)=O)[C@H](C(=O)N(C)C)[C@H]3c2ccccc2)OCO5)cc1 | 110 |

Test system: Lu1
Assay: Cytotoxicity against human Lu1 cells
Assay type: functional
Settings: read-out: ED50 (the source's name)

| Compound | EC50 [µg/mL] |
| --- | --- |
| COc1ccc([C@@]23Oc4cc5c(c(OC)c4[C@]2(O)[C@H](OC(C)=O)[C@H](C(=O)N(C)C)[C@H]3c2ccccc2)OCO5)cc1 | 0.001 (≈ 0.00178 µM) |
| COc1ccc([C@@]23Oc4cc5c(c(OC)c4[C@]2(O)[C@H](OC(C)=O)[C@H](C(=O)N(C)C)[C@H]3c2ccccc2)OCO5)cc1OC | 0.5 (≈ 0.845 µM) |
| COc1ccc([C@]23Oc4cc5c(c(OC)c4[C@](O)([C@H](C(=O)N4CCCC4NC(=O)CC(C)C)[C@H]2c2ccccc2)[C@@H]3OC(C)=O)OCO5)cc1 (stereo not given in full) | > 5 |
| COc1ccc(-c2oc3cc(OC)c(OC)c(O)c3c(=O)c2OC)cc1 | > 5 |
| COc1ccc([C@]23Oc4cc5c(c(OC)c4[C@](O)([C@H](C(=O)N4CCCC4NC(=O)C=C(C)C)[C@H]2c2ccccc2)[C@@H]3O)OCO5)cc1 (stereo not given in full) [19,20-DEHYDROEDULIRIN A] | > 5 |
| COC(=O)[C@@]1(c2ccc(OC)cc2)Oc2cc3c(c(OC)c2C(=O)[C@H](C(=O)N2CCC[C@@H]2NC(=O)C=C(C)C)[C@H]1c1ccccc1)OCO3 [19,20-DEHYDROEDULISONE A] | > 5 |
| COc1ccc(C2C(=O)Oc3cc4c(c(OC)c32)OCO4)cc1 (stereo not given) [AGLALACTONE] | > 5 |
| CS/C=C/C(=O)NC1CCCN1C(=O)/C=C/c1ccccc1 (stereo not given) [AGLAMIDE A] | > 5 |
| C[S+]([O-])/C=C/C(=O)NC1CCCN1C(=O)/C=C/c1ccccc1 (stereo not given) [AGLAMIDE B] | > 5 |
| CC(C)CC(=O)NC1CCCN1C(=O)/C=C/c1ccccc1 (stereo not given) [AGLAMIDE C] | > 5 |
| COC1CCCN1C(=O)/C=C/c1ccccc1 (stereo not given) [AGLAMIDE D] | > 5 |
| COc1ccc([C@@]23Oc4cc5c(c(OC)c4[C@]2(O)[C@H](O)[C@H](C(=O)N(C)C)[C@H]3c2ccccc2)OCO5)cc1 [AGLAROXIN A] | 0.04 (≈ 0.077 µM) |
| COc1ccc([C@]23Oc4cc5c(c(OC)c4[C@](O)([C@H](C(=O)N4CCCC4NC(=O)CC(C)C)[C@H]2c2ccccc2)[C@@H]3O)OCO5)cc1 (stereo not given in full) [EDULIRIN A] | > 5 |
| COc1ccc([C@]23Oc4cc5c(c(OC)c4[C@](O)([C@H](c4ccccc4)[C@H]2C(=O)N2CCCC2NC(=O)CC(C)C)[C@@H]3O)OCO5)cc1 (stereo not given in full) [EDULIRIN B] | > 5 |
| COc1ccc([C@]23Oc4cc5c(c(OC)c4[C@](O)([C@@H](c4ccccc4)[C@@H]2C(=O)N2CCCC2NC(=O)CC(C)C)[C@@H]3O)OCO5)cc1 (stereo not given in full) [ISOEDULIRIN A] | > 5 |
| COc1cc2ccc(=O)oc2cc1O [SCOPOLETIN] | > 5 |

Test system: not listed separately
Assay: Cytotoxicity against HUVEC
Assay type: cell-based
Settings: human, HUVEC cells; read-out: ED50 (the source's name)

| Compound | CC50 [µg/mL] |
| --- | --- |
| COc1ccc([C@@]23Oc4cc5c(c(OC)c4[C@]2(O)[C@H](OC(C)=O)[C@H](C(=O)N(C)C)[C@H]3c2ccccc2)OCO5)cc1 | 0.5 (≈ 0.89 µM) |
| COc1ccc([C@@]23Oc4cc5c(c(OC)c4[C@]2(O)[C@H](OC(C)=O)[C@H](C(=O)N(C)C)[C@H]3c2ccccc2)OCO5)cc1OC | 0.5 (≈ 0.845 µM) |
| COc1ccc([C@]23Oc4cc5c(c(OC)c4[C@](O)([C@H](C(=O)N4CCCC4NC(=O)CC(C)C)[C@H]2c2ccccc2)[C@@H]3OC(C)=O)OCO5)cc1 (stereo not given in full) | > 5 |
| COc1ccc(-c2oc3cc(OC)c(OC)c(O)c3c(=O)c2OC)cc1 | > 5 |
| COc1ccc([C@]23Oc4cc5c(c(OC)c4[C@](O)([C@H](C(=O)N4CCCC4NC(=O)C=C(C)C)[C@H]2c2ccccc2)[C@@H]3O)OCO5)cc1 (stereo not given in full) [19,20-DEHYDROEDULIRIN A] | > 5 |
| COC(=O)[C@@]1(c2ccc(OC)cc2)Oc2cc3c(c(OC)c2C(=O)[C@H](C(=O)N2CCC[C@@H]2NC(=O)C=C(C)C)[C@H]1c1ccccc1)OCO3 [19,20-DEHYDROEDULISONE A] | > 5 |
| COc1ccc(C2C(=O)Oc3cc4c(c(OC)c32)OCO4)cc1 (stereo not given) [AGLALACTONE] | > 5 |
| CS/C=C/C(=O)NC1CCCN1C(=O)/C=C/c1ccccc1 (stereo not given) [AGLAMIDE A] | > 5 |
| C[S+]([O-])/C=C/C(=O)NC1CCCN1C(=O)/C=C/c1ccccc1 (stereo not given) [AGLAMIDE B] | > 5 |
| CC(C)CC(=O)NC1CCCN1C(=O)/C=C/c1ccccc1 (stereo not given) [AGLAMIDE C] | > 5 |
| COC1CCCN1C(=O)/C=C/c1ccccc1 (stereo not given) [AGLAMIDE D] | > 5 |
| COc1ccc([C@@]23Oc4cc5c(c(OC)c4[C@]2(O)[C@H](O)[C@H](C(=O)N(C)C)[C@H]3c2ccccc2)OCO5)cc1 [AGLAROXIN A] | 0.1 (≈ 0.192 µM) |
| COc1ccc([C@]23Oc4cc5c(c(OC)c4[C@](O)([C@H](C(=O)N4CCCC4NC(=O)CC(C)C)[C@H]2c2ccccc2)[C@@H]3O)OCO5)cc1 (stereo not given in full) [EDULIRIN A] | > 5 |
| COc1ccc([C@]23Oc4cc5c(c(OC)c4[C@](O)([C@H](c4ccccc4)[C@H]2C(=O)N2CCCC2NC(=O)CC(C)C)[C@@H]3O)OCO5)cc1 (stereo not given in full) [EDULIRIN B] | > 5 |
| COc1ccc([C@]23Oc4cc5c(c(OC)c4[C@](O)([C@@H](c4ccccc4)[C@@H]2C(=O)N2CCCC2NC(=O)CC(C)C)[C@@H]3O)OCO5)cc1 (stereo not given in full) [ISOEDULIRIN A] | > 5 |
| COc1cc2ccc(=O)oc2cc1O [SCOPOLETIN] | > 5 |

Test system: MCF7
Assay: Cytotoxicity against human MCF7 cells
Assay type: functional
Settings: read-out: ED50 (the source's name)

| Compound | EC50 [µg/mL] |
| --- | --- |
| COc1ccc([C@@]23Oc4cc5c(c(OC)c4[C@]2(O)[C@H](OC(C)=O)[C@H](C(=O)N(C)C)[C@H]3c2ccccc2)OCO5)cc1 | 0.02 (≈ 0.0356 µM) |
| COc1ccc([C@@]23Oc4cc5c(c(OC)c4[C@]2(O)[C@H](OC(C)=O)[C@H](C(=O)N(C)C)[C@H]3c2ccccc2)OCO5)cc1OC | 0.8 (≈ 1.35 µM) |
| COc1ccc([C@]23Oc4cc5c(c(OC)c4[C@](O)([C@H](C(=O)N4CCCC4NC(=O)CC(C)C)[C@H]2c2ccccc2)[C@@H]3OC(C)=O)OCO5)cc1 (stereo not given in full) | > 5 |
| COc1ccc(-c2oc3cc(OC)c(OC)c(O)c3c(=O)c2OC)cc1 | > 5 |
| COc1ccc([C@]23Oc4cc5c(c(OC)c4[C@](O)([C@H](C(=O)N4CCCC4NC(=O)C=C(C)C)[C@H]2c2ccccc2)[C@@H]3O)OCO5)cc1 (stereo not given in full) [19,20-DEHYDROEDULIRIN A] | > 5 |
| COC(=O)[C@@]1(c2ccc(OC)cc2)Oc2cc3c(c(OC)c2C(=O)[C@H](C(=O)N2CCC[C@@H]2NC(=O)C=C(C)C)[C@H]1c1ccccc1)OCO3 [19,20-DEHYDROEDULISONE A] | > 5 |
| COc1ccc(C2C(=O)Oc3cc4c(c(OC)c32)OCO4)cc1 (stereo not given) [AGLALACTONE] | > 5 |
| CS/C=C/C(=O)NC1CCCN1C(=O)/C=C/c1ccccc1 (stereo not given) [AGLAMIDE A] | > 5 |
| C[S+]([O-])/C=C/C(=O)NC1CCCN1C(=O)/C=C/c1ccccc1 (stereo not given) [AGLAMIDE B] | > 5 |
| CC(C)CC(=O)NC1CCCN1C(=O)/C=C/c1ccccc1 (stereo not given) [AGLAMIDE C] | > 5 |
| COC1CCCN1C(=O)/C=C/c1ccccc1 (stereo not given) [AGLAMIDE D] | > 5 |
| COc1ccc([C@@]23Oc4cc5c(c(OC)c4[C@]2(O)[C@H](O)[C@H](C(=O)N(C)C)[C@H]3c2ccccc2)OCO5)cc1 [AGLAROXIN A] | 0.06 (≈ 0.115 µM) |
| COc1ccc([C@]23Oc4cc5c(c(OC)c4[C@](O)([C@H](C(=O)N4CCCC4NC(=O)CC(C)C)[C@H]2c2ccccc2)[C@@H]3O)OCO5)cc1 (stereo not given in full) [EDULIRIN A] | > 5 |
| COc1ccc([C@]23Oc4cc5c(c(OC)c4[C@](O)([C@H](c4ccccc4)[C@H]2C(=O)N2CCCC2NC(=O)CC(C)C)[C@@H]3O)OCO5)cc1 (stereo not given in full) [EDULIRIN B] | > 5 |
| COc1ccc([C@]23Oc4cc5c(c(OC)c4[C@](O)([C@@H](c4ccccc4)[C@@H]2C(=O)N2CCCC2NC(=O)CC(C)C)[C@@H]3O)OCO5)cc1 (stereo not given in full) [ISOEDULIRIN A] | > 5 |
| COc1cc2ccc(=O)oc2cc1O [SCOPOLETIN] | > 5 |
